The conditions of the data set: a range is the spread between reports.

The source of these data is a melting point compilation (Tetko et al.).

Usually melting point stands for the temperature of the solid-liquid transition. With `NC(=O)NO`, the melting point was in the range of 141 to 144 °C. The value for `CC1CCCC1(C)C` (centres undefined) was -22 to -21.6 °C; that for `ClCCCCl` was -100 to -99.5 °C; that for `CC(O)CNCC(C)O` (centres undefined) was 42 to 44.5 °C. The value for `C=C(C)C#N` was -36 to -35.8 °C.

As to `COc1cc(OC)c2ccc(=O)oc2c1`, the melting point is 148 to 149 °C. The value for `Cc1cc2ccccc2[nH]1` was 58 to 61 °C. Regarding `Oc1c(Cl)cc(Cl)c(Cl)c1Cc1c(O)c(Cl)cc(Cl)c1Cl`, the melting point lay within 164 to 166 °C.

Consider `ClC(c1ccccc1)(c1ccccc1)c1ccccc1`, for which the melting point was in the range of 112 to 114 °C. In turn, `CC(=O)CCC(=O)O` registered a melting point of 29 to 33 °C. The value for `c1ccc(-c2ccnc3c2ccc2c(-c4ccccc4)ccnc23)cc1` was 218 to 220 °C; that for `O=C1OC(c2ccc(O)cc2)(c2ccc(O)cc2)c2ccccc21` was 260 to 262 °C. The value for `O=C1CC(=O)NC(=S)N1` was 234 to 235 °C; that for `O=C(c1ccc(F)cc1)c1ccc(F)cc1` was 104 to 108 °C; that for `Oc1ccccc1O` was 105 to 106 °C.

As for `CN(C)Cc1cc(C(C)(C)C)c(O)c(C(C)(C)C)c1`, the melting point lay within 91 to 93.5 °C. The value for `CCC(CC)CC` was -119 °C; that for `N#CCc1cccc(CC#N)c1` was 33 to 34 °C. `CCCCOc1ccccc1` showed a melting point of -19.4 to -19 °C. The value for `CCOC(N)=O` was 48 to 49 °C; that for `CN1C(=O)CCC1=O` was 66 to 71 °C. The value for `O=C1C=Cc2cccc3cccc1c23` was 154 °C; that for `O=C(Oc1ccc2ccccc2c1)c1ccccc1` was 105 to 107 °C. The value for `CCCCC(CC)COC(=O)c1ccccc1C(=O)OCC(CC)CCCC` (centres undefined) was -55 to -50 °C; that for `Oc1cc(O)c2ccccc2c1` was 124 to 125 °C. On to `O=C(O)COc1cccc(Cl)c1`, for which the melting point lay in the range of 108 to 110 °C.

In turn, `O=C(O)CCCCC(=O)O` gave a melting point of 152 to 153 °C.

In turn, `Cc1ccc(O)c([N+](=O)[O-])c1` gave a melting point of 34 to 36.5 °C. `O=[N+]([O-])c1ccc(N=C=S)cc1`: the melting point was 108 to 111 °C.

The molecule `O=Cc1c(Cl)cccc1Cl` had a melting point of 70.5 to 71.5 °C. Consider `CC(C)=NO`, for which the melting point lay in the range of 61 to 62 °C. `O=C(c1ccccc1)C(Cl)Cl` gave a melting point of 20.5 to 21 °C. The value for `c1ccc2cnccc2c1` was 26 to 26.5 °C. In turn, `c1ccc(-c2ccc(-c3ccccc3)o2)cc1` came in with a melting point of 88 to 91 °C. The value for `O=[N+]([O-])c1ccc(F)cc1` was 21 to 23 °C; that for `C=C(C)CCCCCC` was -78 to -77.8 °C; that for `COc1ccc(O)cc1OC` was 81 to 83 °C. `C=C(C)[C@@H]1CCC2=CC(=O)C[C@@H](C)[C@]2(C)C1` gave a melting point of 36 to 36.9 °C. The value for `Brc1sc(Br)c(Br)c1Br` was 115 to 118 °C; that for `CC(C)(C)c1cccc(C(C)(C)C)n1` was 2 to 2.2 °C.

In the case of `Nc1cccc2ccccc12`, the melting point was 48 to 49.2 °C. On to `O=[N+]([O-])c1cc(Br)ccc1Br`, for which the melting point is 82 to 85.5 °C. In the case of `NC(=O)OCc1ccccc1`, the melting point was 87 to 88 °C. The molecule `O=[N+]([O-])c1ccccc1I` returned a melting point of 50 to 54 °C. The value for `OCc1ccc2c(c1)OCO2` was 53 to 58 °C. The value for `NNC(=O)c1ccc(Br)cc1` was 166 to 168 °C; that for `CCCCCCCCCCCCCCCCCCN` was 52.9 to 56 °C; that for `COc1ccc([N+](=O)[O-])cc1N` was 117 to 118 °C. The value for `O=C1C=CCO1` was 4 to 4.5 °C.

The molecule `CCCCCCCCCC#N` gave a melting point of -17.9 to -15 °C. Take `CC(C)(C)C1=CC(=O)C(=O)C(C(C)(C)C)=C1`: the melting point is 114 to 115 °C. Molecule `NC(N)=NC(=O)c1nc(Cl)c(N)nc1N` came in with a melting point of 240 to 241 °C. As for `Cc1cc(C)cc([N+](=O)[O-])c1`, the melting point is 71 to 75 °C. `COc1cccc(C(N)=O)c1` gave a melting point of 133 to 134 °C.

`COc1ccc(CCCC(=O)O)cc1` had a melting point of 57.5 to 59 °C. The value for `CCOCCOCCO` was -80 to -76 °C. Consider `CC1=CC(=O)OC1=O`, for which the melting point is 7.5 to 8 °C. Molecule `CCC(C)(C)CC` displayed a melting point of -135 to -134 °C. In the case of `COC(=O)CCC(=O)O`, the melting point was 57.5 to 58 °C. Regarding `CCCCNCCCC`, the melting point is -62 to -60 °C. In the case of `c1ccc2c3c([nH]c2c1)CCCC3`, the melting point lay in the range of 118 to 120 °C. For `O=C(C=Cc1cccc([N+](=O)[O-])c1)c1ccccc1`, the melting point was determined as 146 °C. With `CC(=O)Nc1ccc(C=O)cc1`, the melting point lay within 156 to 160 °C. `O=C(O)c1cc(F)ccc1F` had a melting point of 130 to 133 °C.

The molecule `c1ccc(-c2ccc3ccccc3n2)cc1` gave a melting point of 83 to 86 °C. In turn, `O=C(O)C(O)c1ccc(Br)cc1` (centres undefined) yielded a melting point of 117 to 118 °C. The value for `CCCl` was -139 °C; that for `Cc1ccc2c(c1[N+](=O)[O-])C(=O)c1ccccc1C2=O` was 268 to 270 °C.

`CC(=O)c1ccc(Cl)c(Cl)c1` returned a melting point of 73 to 76 °C. With `O=C1OC(=O)c2ccccc21`, the melting point fell in the range of 131 to 132 °C. Molecule `CC(=O)c1ccc2ccccc2c1O` had a melting point of 99 to 101 °C.

As to `O=[N+]([O-])c1ccc(O)c(O)c1`, the melting point fell in the range of 175 to 176 °C.

Regarding `CCCCCC(=O)OCCC`, the melting point was -69 to -68.7 °C. The value for `O=C(O)c1c(Cl)cc(Cl)cc1Cl` was 162 to 163 °C; that for `Cn1ccnc1S` was 146 to 147 °C. The value for `Cc1cccc([N+](=O)[O-])c1N` was 95 to 96 °C. Molecule `NC(=O)c1ccc(Br)cc1` returned a melting point of 191 to 192 °C.

As for `O=C(O)c1ccoc1`, the melting point amounted to 122 °C. The value for `CCCCOCCO` was -79 to -74.8 °C; that for `O=c1[nH]c2ccccc2n1CCCN1CCC(n2c(=O)[nH]c3cc(Cl)ccc32)CC1` was 238 to 242 °C; that for `NNC(=O)NN` was 154 to 158 °C. With `C1=CC=CCC=C1`, the melting point is -80 to -79.5 °C. The value for `Oc1ccc(-c2ccc(O)cc2)cc1` was 278 to 283 °C; that for `CCC(=O)c1ccc(Cl)cc1` was 35 to 37.3 °C.

The molecule `O=[N+]([O-])c1cccc(Br)c1` showed a melting point of 54 to 56 °C.

In the case of `CCCCCCCCC`, the melting point is -54 to -53 °C. The value for `COc1ccc(C=O)c(OC)c1` was 69 to 72 °C; that for `CCOC(=O)c1cccc([N+](=O)[O-])c1` was 42 to 47 °C; that for `Cc1cccc(N)c1` was -31.3 to -30 °C. On to `COc1ccccc1OCC(O)CO` (centres undefined), for which the melting point was 78.5 to 81 °C. The value for `BrCC(Br)c1ccccc1` (centres undefined) was 72 to 75 °C. As for `CCc1cc(C)cc(CC)c1`, the melting point is -74.1 to -74 °C. Molecule `C#CC1(O)CCCC1` showed a melting point of 25 to 27 °C.

Regarding `CC1OC1C` (centres undefined), the melting point was -85 to -80 °C.

`C=Cc1cccc([N+](=O)[O-])c1` gave a melting point of -10 to -5 °C. As to `c1ccc(-c2ncc[nH]2)cc1`, the melting point is 148 to 149 °C. Consider `OC1CCCCCCCCC1`, for which the melting point lay within 39.9 to 40.5 °C. The value for `C=C(C)CCCC` was -103 °C. The value for `ClCCBr` was -18 to -16.7 °C. The value for `O=C(O)c1cc(F)cc(F)c1` was 121 to 122 °C. For `C#Cc1ccccc1`, the melting point is -45 to -44.8 °C. For the molecule `COc1cccc(N)c1`, the melting point was -1 to 0 °C. In the case of `CCOC(=O)CC(C)C`, the melting point is -99.3 to -99 °C. Molecule `Nc1ccc2c(c1)Cc1ccccc1-2` registered a melting point of 128 to 129 °C.

Molecule `Cc1cc(C)c(C)c(C)c1C` came in with a melting point of 54 to 54.5 °C. Turning to `C=C(C)OC(C)=O`, the melting point is -93 to -92.9 °C. The value for `Oc1ccc(Cl)c(O)c1` was 106 to 107 °C; that for `Oc1c(Br)c(Br)c(Br)c(Br)c1Br` was 226 to 230 °C. The value for `CCCCCCCCCl` was -58 to -57.8 °C; that for `CCCCCCOCCO` was -45.1 to -42 °C. The value for `ICCCCI` was 5.8 to 6 °C; that for `CCOc1ccc(C(C)(C)COCc2cccc(Oc3ccccc3)c2)cc1` was 36 to 37 °C. Take `c1ccc(Nc2ccc(-c3ccc(Nc4ccccc4)cc3)cc2)cc1`: the melting point was 247 to 248 °C. In turn, `Nc1nccs1` gave a melting point of 90 to 93 °C. The value for `Cc1cccc(C#N)c1` was -27 to -23 °C. The value for `S=C=Nc1ccc(Cl)cc1` was 45 to 46 °C; that for `CCCCCCCCCCC=O` was -4 to 0 °C; that for `Nc1cccc(Cl)c1Cl` was 22 to 24 °C. The value for `C1CCCC1` was -94 to -93.8 °C; that for `Cc1ccc(Cl)c(N)c1` was 29.5 to 32 °C; that for `CC(C)CBr` was -119 to -117 °C.

`Cc1ccc(N=C=O)cc1N=C=O` had a melting point of 20 to 21 °C. The value for `[O-][S+](Cc1ccccc1)Cc1ccccc1` was 133 to 134 °C.

For the molecule `C=CCCCCCCC`, the melting point is -83.2 to -81 °C.

For `CC(Oc1ccccc1)C(=O)O` (centres undefined), the melting point came to 118 °C. `CC(C)(CC(=O)O)CC(=O)O`: the melting point fell in the range of 101 to 104 °C. The value for `Oc1c(Br)cccc1Br` was 55 to 56.5 °C; that for `CCCCCCCCCCCCO` was 24 to 26 °C. The value for `O=C(O)/C=C/c1ccccc1` was 133 to 135 °C.

As for `CCCCCCCC(=O)OCC`, the melting point was -47 to -43.1 °C. With `c1ccc2c(c1)CCc1ccccc1N2`, the melting point lay in the range of 106 to 107 °C.

For `CCCCCCCCl`, the melting point was -70 to -69.5 °C.

The molecule `CCCCCCCCCCCl` had a melting point of -31.3 to -31 °C. As to `C=Cc1ccc2ccccc2c1`, the melting point lay in the range of 65 to 66 °C.

For the molecule `CCC(CC)C(C)(C)C`, the melting point was -99.3 to -99 °C. `c1ccc(COc2ccc3[nH]ccc3c2)cc1` had a melting point of 99 to 102 °C. The value for `COC(=O)C(C)C` was -85 to -84.7 °C; that for `CCOc1cccc(C(=O)O)c1` was 136 to 137 °C; that for `OCCc1c[nH]c2ccccc12` was 58 to 59 °C.
